# Experimental data: patent US7465806B2, “Pyrrole-derivatives as factor Xa inhibitors” (SANOFI-AVENTIS Deutschland GmbH, priority 2004, dated 2008)
# Target: T1, human factor Xa (Homo sapiens, UniProt P00742)
# T1 construct: human factor Xa (Enzyme Research Laboratories, Inc; South Bend, Indiana); purchased Enzyme Research Laboratories, Inc; South Bend, Indiana
# Assay: Factor Xa chromogenic assay (inhibition of factor Xa activity)
# Format: biochemical
# Details: inhibition constant for factor Xa; chromogenic substrate S-2765 140 μM, enzyme 0.5 nM, 25° C.; Ki calculated from IC50; read-out: Ki(FXa)
# Experimental: The ability of the compounds of the formulae I and Ia to inhibit factor Xa or factor VIIa or other enzymes like thrombin, plasmin, or trypsin can be assessed by determining the concentration of the compound of the formulae I and Ia that inhibits enzyme activity by 50%, i.e. the IC50 value, which was related to the inhibition constant Ki. Purified enzymes were used in chromogenic assays. The concentration of inhibitor that causes a 50% decrease in the rate of substrate hydrolysis was determined by linear regression after plotting the relative rates of hydrolysis (compared to the uninhibited control) versus the log of the concentration of the compound of formulae I and Ia. For calculating the inhibition constant Ki, the IC50 value was corrected for competition with substrate using the formula Ki=IC50/{1+(substrate concentration/Km)} wherein Km is the Michaelis-Menten constant (Chen and Prusoff, Biochem. Pharmacol. 22 (1973), 3099-3108; I. H. Segal, Enzyme Kinetics, 1975, John Wiley & Sons, New York, 100-125; which were incorporated herein by reference). a) Factor Xa Assay
# In the assay for determining the inhibition of factor Xa activity TBS-PEG buffer (50 mM Tris-HCl, pH 7.8,200 mM NaCl, 0.05% (w/v) PEG-8000, 0.02% (w/v) NaN3) was used. The IC50 was determined by combining in appropriate wells of a Costar half-area microtiter plate 25 μl human factor Xa (Enzyme Research Laboratories, Inc.; South Bend, Indiana) in TBS-PEG; 40 μl 10% (v/v) DMSO in TBS-PEG (uninhibited control) or various concentrations of the compound to be tested diluted in 10% (v/v) DMSO in TBS-PEG; and substrate S-2765 (N(α)-benzyloxycarbonyl-D-Arg-Gly-L-Arg-p-nitroanilide; Kabi Pharmacia, Inc.; Franklin, Ohio) in TBS-PEG.
# The assay was performed by pre-incubating the compound of formulae I and Ia plus enzyme for 10 min. Then the assay was initiated by adding substrate to obtain a final volume of 100 μl. The initial velocity of chromogenic substrate hydrolysis was measured by the change in absorbance at 405 nm using a Bio-tek Instruments kinetic plate reader (Ceres UV900HDi) at 25° C. during the linear portion of the time course (usually 1.5 min after addition of substrate). The enzyme concentration was 0.5 nM and substrate concentration was 140 μM.
# T1 sequence (P00742 235-488 limits assumed): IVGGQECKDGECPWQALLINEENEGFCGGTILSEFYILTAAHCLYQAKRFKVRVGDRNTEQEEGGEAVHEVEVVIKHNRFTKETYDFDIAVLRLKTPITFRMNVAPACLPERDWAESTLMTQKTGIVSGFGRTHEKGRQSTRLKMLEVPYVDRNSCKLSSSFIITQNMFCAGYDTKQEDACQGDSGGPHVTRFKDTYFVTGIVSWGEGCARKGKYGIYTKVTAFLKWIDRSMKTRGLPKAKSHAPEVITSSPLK
# T1 sequence (P00742 41-179 partner limits assumed): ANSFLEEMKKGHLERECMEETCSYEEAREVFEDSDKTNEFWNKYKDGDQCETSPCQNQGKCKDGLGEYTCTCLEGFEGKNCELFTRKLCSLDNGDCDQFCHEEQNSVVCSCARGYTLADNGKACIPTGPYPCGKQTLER
row,Ki [nM],Structure (SMILES)
1,8060,"COc1cccc(Cn2cccc2C(=O)NC2CCN(C(C)C)CC2)c1 [Example 2, 1-(3-Methoxy-benzyl)-1H-pyrrole-2-carboxylic acid (1-isopropyl-piperidin-4-yl)-amide]"
2,77,"CC(C)N1CCC(NC(=O)c2cccn2Cc2cc(-c3ccc(Cl)s3)on2)CC1 [Example 1, 1-[5-(5-Chloro-thiophen-2-yl)-isoxazol-3-ylmethyl]-1H-pyrrole-2-carboxylic acid (1-isopropyl-piperidin-4-yl)-amide]"
3,57,"COCCN(C)C(=O)c1ccc(C(=O)NC2CCN(C(C)C)CC2)n1Cc1cc(-c2ccc(Cl)s2)on1 [Example 20, 1-[5-(5-Chloro-thiophen-2-yl)-isoxazol-3-ylmethyl]-1H-pyrrole-2,5-dicarboxylic acid 2-[(1-isopropyl-piperidin-4-yl)-amide] 5-[(2-methoxy-ethyl)-methyl-amide]]"
4,249,"CC(C)N1CCC(NC(=O)c2ccc(C(=O)N3CCCOCC3)n2Cc2cc(-c3ccc(Cl)s3)on2)CC1 [Example 7, 1-[5-(5-Chloro-thiophen-2-yl)-isoxazol-3-ylmethyl]-5-(perhydro-1,4-oxazepine-4-carbonyl)-1H-pyrrole-2-carboxylic acid (1-isopropyl-piperidin-4-yl)-amide]"
5,5,"CC(C)N1CCC(NC(=O)c2ccc(-c3ccccc3)n2Cc2cc(-c3ccc(Cl)s3)on2)CC1 [Example 21, 1-[5-(5-Chloro-thiophen-2-yl)-isoxazol-3-ylmethyl]-5-phenyl-1H-pyrrole-2-carboxylic acid (1-isopropyl-piperidin-4-yl)-amide]"
6,41300,"COC(=O)c1cc(C(=O)NC2CCN(C(C)C)CC2)cn1CC(=O)Nc1ccc(Cl)cn1 [Example 15, 1-[(5-Chloro-pyridin-2-ylcarbamoyl)-methyl]-4-(1-isopropyl-piperidin-4-ylcarbamoyl)-1H-pyrrole-2-carboxylic acid methyl ester]"
7,24,"Cc1c(C=O)c(C)n(Cc2cc(-c3ccc(Cl)s3)on2)c1C(=O)NC1CCN(C(C)C)CC1 [Example 25, 1-[5-(5-Chloro-thiophen-2-yl)-isoxazol-3-ylmethyl]-4-formyl-3,5-dimethyl-1H-pyrrole-2-carboxylic acid (1-isopropyl-piperidin-4-yl)-amide]"
8,902,"CC(C)N1CCC(NC(=O)c2ccc(C(=O)N3CCCOCC3)n2CC(=O)Nc2ccc(Cl)cn2)CC1 [Example 6, 1-[(5-Chloro-pyridin-2-ylcarbamoyl)-methyl]-5-(perhydro-1,4-oxazepine-4-carbonyl)-1H-pyrrole-2-carboxylic acid (1-isopropyl-piperidin-4-yl)-amide]"
9,294,"CC(C)N1CCC(NC(=O)c2ccc(C(=O)O)n2Cc2cc(-c3ccc(Cl)s3)on2)CC1 [Example 11, 1-[5-(5-Chloro-thiophen-2-yl)-isoxazol-3-ylmethyl]-5-(1-isopropyl-piperidin-4-ylcarbamoyl)-1H-pyrrole-2-carboxylic acid]"
10,112,"Cc1c(S(=O)(=O)N2CCCOCC2)c(C)n(Cc2cc(-c3ccc(Cl)s3)on2)c1C(=O)NC1CCN(C(C)C)CC1 [Example 22, 1-[5-(5-Chloro-thiophen-2-yl)-isoxazol-3-ylmethyl]-3,5-dimethyl-4-(perhydro-1,4-oxazepine-4-sulfonyl)-1H-pyrrole-2-carboxylic acid (1-isopropyl-piperidin-4-yl)-amide]"
11,152,"Cc1c(CCC(=O)O)c(C)n(Cc2cc(-c3ccc(Cl)s3)on2)c1C(=O)NC1CCN(C(C)C)CC1 [Example 8, 3-[1-[5-(5-Chloro-thiophen-2-yl)-isoxazol-3-ylmethyl]-5-(1-isopropyl-piperidin-4-ylcarbamoyl)-2,4-dimethyl-1H-pyrrol-3-yl]-propionic acid]"
12,9580,"CC(C)N1CCC(NC(=O)c2cc(C(=O)OCc3ccccc3)n(Cc3cc(-c4ccc(Cl)s4)on3)c2)CC1 [Example 13, 1-[5-(5-Chloro-thiophen-2-yl)-isoxazol-3-ylmethyl]-4-(1-isopropyl-piperidin-4-ylcarbamoyl)-1H-pyrrole-2-carboxylic acid benzyl ester]"
13,1440,"COC(=O)c1cc(C(=O)NC2CCN(C(C)C)CC2)cn1Cc1cc(-c2ccc(Cl)s2)on1 [Example 16, 1-[5-(5-Chloro-thiophen-2-yl)-isoxazol-3-ylmethyl]-4-(1-isopropyl-piperidin-4-ylcarbamoyl)-1H-pyrrole-2-carboxylic acid methyl ester]"
14,11,"Cc1c(Br)c(C)n(CC(=O)Nc2ccc(Cl)cn2)c1C(=O)NC1CCN(C(C)C)CC1 [Example 24, 4-Bromo-1-[(5-chloro-pyridin-2-ylcarbamoyl)-methyl]-3,5-dimethyl-1H-pyrrole-2-carboxylic acid (1-isopropyl-piperidin-4-yl)-amide]"
15,81,"CC(C)N1CCC(NC(=O)c2cc(C(=O)N3CCCOCC3)cn2CC(=O)Nc2ccc(Cl)cn2)CC1 [Example 5, 1-[(5-Chloro-pyridin-2-ylcarbamoyl)-methyl]-4-(perhydro-1,4-oxazepine-4-carbonyl)-1H-pyrrole-2-carboxylic acid (1-isopropyl-piperidin-4-yl)-amide]"
16,8990,"CC(C)N1CCC(NC(=O)c2cc(C(=O)O)n(Cc3cc(-c4ccc(Cl)s4)on3)c2)CC1 [Example 17, 1-[5-(5-Chloro-thiophen-2-yl)-isoxazol-3-ylmethyl]-4-(1-isopropyl-piperidin-4-ylcarbamoyl)-1H-pyrrole-2-carboxylic acid]"
17,11,"Cc1cc(C)n(Cc2cc(-c3ccc(Cl)s3)on2)c1C(=O)NC1CCN(C(C)C)CC1 [Example 4, 1-[5-(5-Chloro-thiophen-2-yl)-isoxazol-3-ylmethyl]-3,5-dimethyl-1H-pyrrole-2-carboxylic acid (1-isopropyl-piperidin-4-yl)-amide]"
18,5,"Cc1c(Br)c(C)n(Cc2cc(-c3ccc(Cl)s3)on2)c1C(=O)NC1CCN(C(C)C)CC1 [Example 23, 4-Bromo-1-[5-(5-chloro-thiophen-2-yl)-isoxazol-3-ylmethyl]-3,5-dimethyl-1H-pyrrole-2-carboxylic acid (1-isopropyl-piperidin-4-yl)-amide]"
19,7,"COC(=O)c1ccc(C(=O)NC2CCN(C(C)C)CC2)n1Cc1cc(-c2ccc(Cl)s2)on1 [Example 10, 1-[5-(5-Chloro-thiophen-2-yl)-isoxazol-3-ylmethyl]-5-(1-isopropyl-piperidin-4-ylcarbamoyl)-1H-pyrrole-2-carboxylic acid methyl ester]"
20,88,"COCCNC(=O)c1ccc(C(=O)NC2CCN(C(C)C)CC2)n1Cc1cc(-c2ccc(Cl)s2)on1 [Example 19, 1-[5-(5-Chloro-thiophen-2-yl)-isoxazol-3-ylmethyl]-1H-pyrrole-2,5-di carboxylic acid 2-[(1-isopropyl-piperidin-4-yl)-amide] 5-[(2-methoxy-ethyl)-amide]]"
21,997,"CC(C)N1CCC(NC(=O)c2ccc(C(=O)OCc3ccccc3)n2Cc2cc(-c3ccc(Cl)s3)on2)CC1 [Example 9, 1-[5-(5-Chloro-thiophen-2-yl)-isoxazol-3-ylmethyl]-5-(1-isopropyl-piperidin-4-ylcarbamoyl)-1H-pyrrole-2-carboxylic acid benzyl ester]"
22,59,"CC(C)N1CCC(NC(=O)c2cc([N+](=O)[O-])cn2CC(=O)Nc2ccc(Cl)cn2)CC1 [Example 14, 1-[(5-Chloro-pyridin-2-ylcarbamoyl)-methyl]-4-nitro-1H-pyrrole-2-carboxylic acid (1-isopropyl-piperidin-4-yl)-amide]"
23,34900,"CC(C)N1CCC(NC(=O)c2cc(C(=O)OCc3ccccc3)n(CC(=O)Nc3ccc(Cl)cn3)c2)CC1 [Example 12, 1-[(5-Chloro-pyridin-2-ylcarbamoyl)-methyl]-4-(1-isopropyl-piperidin-4-ylcarbamoyl)-1H-pyrrole-2-carboxylic acid benzyl ester]"
24,43,"CC(C)N1CCC(NC(=O)c2cc([N+](=O)[O-])cn2Cc2cc(-c3ccc(Cl)s3)on2)CC1 [Example 3, 1-[5-(5-Chloro-thiophen-2-yl)-isoxazol-3-ylmethyl]-4-nitro-1H-pyrrole-2-carboxylic acid (1-isopropyl-piperidin-4-yl)-amide]"
